Results from US20230090255A1, “MAGL INHIBITOR, PREPARATION METHOD THEREFOR AND USE THEREOF” (LUNAN PHARMACEUTICAL GROUP CORPORATION, priority 2019, published 2023).

What was measured:
[1] = system: mice pain response induced by hot plate; test: Mice pain response induced by hot plate; format: in vivo, ICR mice; conditions: for Pain threshold: hot plate 55°C
Experimental: Female ICR mice (20±2) g were placed on an intelligent hot plate at 55±0.5° C., and latency (s) that the plantar of mice touched the hot plate until the occurrence of a hind paws licking response served as a pain threshold indicator; the mice (response latency <5 s or >30 s) or jumping mice were eliminated.
Grouping and administration were the same as those in Example 40.
The mice were continuously administered intragastrically for 7 consecutive days; the pain threshold of each group of mice was respectively determined once at 30, 60, 90 and 120 min after the final administration; the pain threshold greater than 60 s was calculated by 60 s.

[2] = system: mice with inflammatory pain; test: Pain threshold of mice with inflammatory pain (complete Freund's adjuvant); format: in vivo, SD mice; conditions: for Pain threshold: complete Freund's adjuvant paw model
Experimental: […] (180±20) g were injected with a complete Freund’s adjuvant (50 µL/piece) at the right rear plantar of mice, and mice in the control group were injected with the corresponding volume of 0.5% sodium carboxymethylcellulose to establish a paw edema inflammatory pain model. After modeling, the mice were administered for 7 d continuously, and administered intragastrically once per day. Pain thresholds (s) of the mice were respectively determined on the 1st, 3rd and 7th day before administration and after modeling at different periods of time.
Grouping and administration were the same as those of Example 40.

[3] = system: reserpine-induced mice migraine; test: Reserpine-induced mice migraine; format: in vivo, ICR mice; conditions: for Blood coagulation time: reserpine 0.2 mg/kg sc mice, 1 h after final administration; for brain tissue 5-HT / Times of tail suspension (struggling times within 2 min): reserpine mice; for Times of tail suspension (struggling times within 2 min): 9th day
Experimental: The mice in the blank control group and model group were administered intragastrically via a solvent from the 5th day after modeling, and the rest groups of mice were respectively administered corresponding medicaments and doses for intragastric administration for 10 consecutive days; 1 h later after the final administration, the mice were weighed; blood was taken at inner canthus to detect blood coagulation time; whole blood was taken, and cerebrum was taken on an ice and preserved at -20° C. for the subsequent experiment.
Behavioral test: tail suspension activity was performed; the position 1 cm away from the tail of the mice was glued by an adhesive tape on the 9th day of the test, and the adhesive tape was penetrated by a steel needle, and hung in a dark box such that the mice were hung upside down; then the mice struggling times (total number of overturning from hanging) within 2 min were observed.
The mice were weighed 1 h later after the final administration; blood of inner canthus was taken via a capillary to detect the blood coagulation time.
Blood was taken to detect the content of 5-HT in serum via high-performance liquid chromatography. Cerebrum was taken on an ice and precooled and cleaned slightly with 0.5% sodium carboxymethylcellulose, and then sucked dry with a filter paper, and placed into a cryogenic tube, and preserved at -20° C. for further use, then the content of 5-HT in brain tissues was detected by high performance liquid chromatography.
5-HT test method: a sample was precipitated with 10% perchloric acid solution according to 1:1, and then centrifuged to take supernatant for test. Chromatographic conditions: the chromatographic column is a SHIMADZU VP-ODS C18 column (250*4.6 mm, 5 um), the mobile phase is a methanol-0.01 mol/L potassium acetate buffer solution (10:90, V/V, PH is adjusted to 4.00 with 0.2 mol/L citric acid) for gradient elution; the column temperature is 25° C., flow rate is 1.00 ml/min and test wavelength is 275 nm.

ulcerative colitis mice = test: Mice ulcerative colitis (DSS); format: in vivo, BALB/c mice; conditions: for Total times of hematochezia within the four periods / Colon length / IL-1 content: DSS mice; for Colon length: four periods; for IL-1 content: serum, ELISA
Source text: Healthy male SPF-level BALB/c mice (8-week old and body mass: (20±2) g).
Modeling: the mice were randomly divided into […] at the end of the quarantine, 10 pieces for each group. The mice in the normal group drank normal water freely, and the rest groups of mice drank 1.0%-1.5% DSS solution freely for modeling, 7 d later after modeling, the mice in the modeling group drank normal water freely for 7 d, and 14 d served as a modeling period for four continuous periods, and the mice in the modeling group were administered at the same time.
End point of the experiment: experimental administration was performed for four periods, and dissection was performed on the 3rd and 4th day of the recovery period of the 4th period.
Test indicators: the mice were weighed twice a week after the beginning of the administration; diarrhea and hematochezia of the mice were observed, and times of hematochezia were recorded.
At the end of the experiment, the mice were dissected and weighed, and narcotized to take blood, then serum was preserved at -80° C. Spleen was taken and weighed to calculate the spleen index. The content of IL-1β in serum was detected via ELISA. Colorectum was cut and taken to measure the length of colorectum, then immobilized by formaldehyde and dyed by HE to detect the pathological change.

[4] = system: mice writhing caused by acetic acid; test: Mice writhing caused by acetic acid; conditions: for Writhing times: 1 h before 0.7% acetic acid ip, within 20 min; for Latent time: time to first writhing; for Inhibition ratio: writhing inhibition
Experimental: Each compound was prepared into a suspension by 0.5% sodium carboxymethylcellulose respectively, and then set according to the dose, and each administration group was administered intragastrically; the model group was administered intragastrically an equal volume of 0.5% sodium carboxymethylcellulose.
Mice were intraperitoneally injected with acetic acid to cause a large area and more lasting painful stimuli in deep enterocoelia, causing mice to produce writhing responses. After being administered for 1 h, each dose group was intraperitoneally injected with 0.7% acetic acid-normal saline solution (0.1 ml/10 g).
The time (pain latent time) that the mice started to appear writhing after being intraperitoneally injected with acetic acid was recorded.
The writhing response times of each mouse within 20 min were recorded after injecting acetic acid to cause pain, and then, the writhing inhibition ratio of each administration group was calculated.
Writhing inhibition ratio = [(writhing times of the control group -writhing times of the administration group)/writhing times of the control group] × 100%
Experimental data is shown by x±s and subjected to variance analysis by SPSS 15.0 software.

SMILES: O=C(Nc1cccc(Cl)c1)C1CCN(C(=O)c2cc(O)ccc2F)CC1 [MAGLZ-II-11 (a)]
- pain thresholds of the thermal-stimulus mice, in words ([1]; compared with the model group): significantly extend
- Pain threshold ([1]; high dose 30 mg/kg ig 7 d, 30 min after final administration): 39.45 ± 6.75 s
- Pain threshold ([1]; high dose 30 mg/kg ig 7 d, 60 min): 46.56 ± 6.35 s
- Pain threshold ([1]; high dose 30 mg/kg ig 7 d, 90 min): 45.42 ± 6.84 s
- Pain threshold ([1]; high dose 30 mg/kg ig 7 d, 120 min): 43.73 ± 5.68 s
- Pain threshold ([1]; low dose 7.5 mg/kg ig 7 d, 30 min after final administration): 36.18 ± 8.50 s
- Pain threshold ([1]; low dose 7.5 mg/kg ig 7 d, 60 min): 43.17 ± 7.43 s
- Pain threshold ([1]; low dose 7.5 mg/kg ig 7 d, 90 min): 42.83 ± 7.34 s
- Pain threshold ([1]; low dose 7.5 mg/kg ig 7 d, 120 min): 42.16 ± 7.05 s
- Pain threshold ([1]; middle dose 15 mg/kg ig 7 d, 30 min after final administration): 38.16 ± 7.00 s
- Pain threshold ([1]; middle dose 15 mg/kg ig 7 d, 60 min): 45.47 ± 7.03 s
- Pain threshold ([1]; middle dose 15 mg/kg ig 7 d, 90 min): 43.71 ± 5.87 s
- Pain threshold ([1]; middle dose 15 mg/kg ig 7 d, 120 min): 42.34 ± 7.04 s
- pain threshold of the mice with inflammatory pain, in words ([2]; compared with the model group): significantly extend
- Pain threshold ([2]; high dose 30 mg/kg ig once per day, 0 d): 12.97 ± 2.32 s
- Pain threshold ([2]; high dose 30 mg/kg ig once per day, 1 d): 7.83±1.01^∗∗∗ s
- Pain threshold ([2]; high dose 30 mg/kg ig once per day, 3 d): 9.55±1.58^∗∗∗ s
- Pain threshold ([2]; high dose 30 mg/kg ig once per day, 7 d): 11.00±161.00^∗∗∗ s
- Pain threshold ([2]; low dose 7.5 mg/kg ig once per day, 0 d): 12.96 ± 2.44 s
- Pain threshold ([2]; low dose 7.5 mg/kg ig once per day, 1 d): 7.38±1.19^∗∗∗ s
- Pain threshold ([2]; low dose 7.5 mg/kg ig once per day, 3 d): 8.87±0.74^∗∗∗ s
- Pain threshold ([2]; low dose 7.5 mg/kg ig once per day, 7 d): 9.91±1.05^∗∗∗ s
- Pain threshold ([2]; middle dose 15 mg/kg ig once per day, 0 d): 13.03 ± 2.35 s
- Pain threshold ([2]; middle dose 15 mg/kg ig once per day, 1 d): 7.58±0.84^∗∗∗ s
- Pain threshold ([2]; middle dose 15 mg/kg ig once per day, 3 d): 9.30±0.75^∗∗∗ s
- Pain threshold ([2]; middle dose 15 mg/kg ig once per day, 7 d): 10.66±1.30^∗∗∗ s
- blood coagulation time, in words ([3]; compared with the model group): significantly extend
- level of 5-HT in the brain tissue, in words ([3]; compared with the model group): significantly increase
- times of the tail suspension activity, in words ([3]; compared with the model group): significantly increase
- Blood coagulation time ([3]; high dose 30 mg/kg ig 10 d): 300.63±45.26 S
- Blood coagulation time ([3]; low dose 7.5 mg/kg ig 10 d): 136.75±33.22 S
- Blood coagulation time ([3]; middle dose 15 mg/kg ig 10 d): 256.88±42.93 S
- brain tissue 5-HT ([3]; high dose 30 mg/kg ig 10 d): 2.97 ± 0.28 nmol/g
- Times of tail suspension (struggling times within 2 min) ([3]; high dose 30 mg/kg ig): 20.75±4.98
- brain tissue 5-HT ([3]; low dose 7.5 mg/kg ig 10 d): 1.35 ± 0.38 nmol/g
- Times of tail suspension (struggling times within 2 min) ([3]; low dose 7.5 mg/kg ig): 16.13±3.68
- brain tissue 5-HT ([3]; middle dose 15 mg/kg ig 10 d): 1.86 ± 0.29 nmol/g
- Times of tail suspension (struggling times within 2 min) ([3]; middle dose 15 mg/kg ig): 19.88 ± 4.09
- Total times of hematochezia within the four periods (ulcerative colitis mice; high dose 30 mg/kg ig): 27.90±3.73
- Colon length (ulcerative colitis mice; high dose 30 mg/kg ig): 7.56±0.74 cm
- IL-1 content (ulcerative colitis mice; high dose 30 mg/kg ig): 38.61 ± 10.98 pg/mL
- Total times of hematochezia within the four periods (ulcerative colitis mice; low dose 7.5 mg/kg ig): 28.80±7.04
- Colon length (ulcerative colitis mice; low dose 7.5 mg/kg ig): 7.21±1.10 cm
- IL-1 content (ulcerative colitis mice; low dose 7.5 mg/kg ig): 42.01 ± 13.92 pg/mL
- Total times of hematochezia within the four periods (ulcerative colitis mice; middle dose 15 mg/kg ig): 29.10±7.14
- Colon length (ulcerative colitis mice; middle dose 15 mg/kg ig): 7.20±0.97 cm
- IL-1 content (ulcerative colitis mice; middle dose 15 mg/kg ig): 40.70 ± 8.50 pg/mL
- IL-1 content, in words (ulcerative colitis mice; compared with the model group): decrease
- colon length, in words (ulcerative colitis mice; compared with the model group): significantly increase
- total times of hematochezia, in words (ulcerative colitis mice; compared with the model group): reduce
- latent time, in words ([4]; compared with the model group): extend
- mice writhing times caused by acetic acid, in words ([4]; compared with the model group): significantly decrease
- Writhing times ([4]; high dose 30 mg/kg ig): 12.5±9.4
- Latent time ([4]; high dose 30 mg/kg ig): 488.8 ± 172.0 s
- Inhibition ratio ([4]; high dose 30 mg/kg ig): 68.2%
- Writhing times ([4]; low dose 7.5 mg/kg ig): 22.6±12.0
- Latent time ([4]; low dose 7.5 mg/kg ig): 401.2 ± 168.3 s
- Inhibition ratio ([4]; low dose 7.5 mg/kg ig): 42.5%
- Writhing times ([4]; middle dose 15 mg/kg ig): 18.6±14.6
- Latent time ([4]; middle dose 15 mg/kg ig): 438.9 ± 230.0 s
- Inhibition ratio ([4]; middle dose 15 mg/kg ig): 52.7%
